Laboratory results published in the NIST ThermoML archive (doi:10.1021/acs.jced.8b00930).
Numbers after ± are expanded uncertainties.

Conditions: Liquid, Capillary tube (Ostwald / Ubbelohde) method

CCCCCCCCCCCCCCCC [hexadecane]
Conditions | viscosity [mPa·s]
322.7 K, 1940 kPa | 1.885 ± 0.066
323.7 K, 970 kPa | 1.857 ± 0.063
323.7 K, 3000 kPa | 1.904 ± 0.065
323.8 K, 1980 kPa | 1.878 ± 0.066
323.8 K, 3910 kPa | 1.925 ± 0.066
372.7 K, 990 kPa | 0.909 ± 0.031
372.7 K, 1960 kPa | 0.922 ± 0.083
372.8 K, 2970 kPa | 0.929 ± 0.031
372.8 K, 3950 kPa | 0.947 ± 0.15
373.9 K, 980 kPa | 0.896 ± 0.031
373.9 K, 2000 kPa | 0.909 ± 0.083
373.9 K, 2980 kPa | 0.915 ± 0.031
373.9 K, 3900 kPa | 0.936 ± 0.17
422.9 K, 1990 kPa | 0.554 ± 0.019
422.9 K, 2970 kPa | 0.557 ± 0.019
422.9 K, 3840 kPa | 0.568 ± 0.02
471.9 K, 1000 kPa | 0.358 ± 0.013
472 K, 2010 kPa | 0.363 ± 0.012
472.1 K, 2910 kPa | 0.371 ± 0.013
472.1 K, 3870 kPa | 0.374 ± 0.015
473.7 K, 3990 kPa | 0.375 ± 0.02
521.9 K, 970 kPa | 0.245 ± 0.008
521.9 K, 1960 kPa | 0.254 ± 0.009
521.9 K, 2950 kPa | 0.26 ± 0.009
522 K, 3830 kPa | 0.267 ± 0.009
572.1 K, 2930 kPa | 0.192 ± 0.007
572.2 K, 2000 kPa | 0.187 ± 0.006
572.2 K, 3850 kPa | 0.196 ± 0.007
621.9 K, 2010 kPa | 0.131 ± 0.005
622 K, 2890 kPa | 0.137 ± 0.005
622.1 K, 3820 kPa | 0.142 ± 0.005
623.2 K, 3990 kPa | 0.143 ± 0.005
672.6 K, 3990 kPa | 0.104 ± 0.004
673.2 K, 2000 kPa | 0.091 ± 0.003
673.6 K, 3000 kPa | 0.097 ± 0.003
